{"source": "patent US7598419B2", "about": "“Compounds for modulating cell proliferation” (HSC Research and Development Limited Partnership, priority 2004, dated 2009)", "key": {"normal bone marrow cells": {"test_system": "normal bone marrow cells", "test": "CFU-GEMM assay: normal bone marrow differentiation in culture", "format": "cell-based, human", "procedure": "(§1) The CFU-GEMM assay was performed according to Fauser and Messner (1978, Blood, 52(6) 143-8) and Messner and Fausser (1980, Blut, 41(5) 327-33) with some variations. In brief, heparinized bone marrow cells were layered over Percoll (1.077 gm/ml) (Pharmacia Fine Chemical, Piscataway N.J.) and centrifuged at 400 g at 4° C. for 10 minutes to remove neutrophils and RBCs. The fractionated BM cells at 2×10^5 cells/ml were cultured in IMDM (OCI, Toronto) containing 0.9% (vol/vol) methylcellulose supplementd with 30% FCS (Cansera Rexdale, ON.) or normal human plasma, a cocktail of cytokines containing G-CSF (10 ng/ml, Amgen), IL-3 (40 U/ml, Immunex), MGF (50 ng/ml, Immunex), Erythropoietin (2 u/ml, Epprex) or TPO (10 ng/ml, Amgen), 5×10^−5M β-2-mercaptoethanol and the specified concentration of CR4. The culture mixture was plated in 1 ml volumes into 35 mm petri dishes and incubated at 37° C., 5% CO2 in a humidified atmosphere. All cultures were evaluated at 14 days for the number of BFU-E colonies (defined as aggregates of more than 500 hemoglobinized cells or, 3 or more erythroid subcolonies), CFU-GM colonies (defined as granulocyte or monocyte-macrophage cells or both), CFU-Meg colonies (comprising 4 or more megakaryocytes) and CFU-GEMM colonies (a mixed population comprising of all elements).\nas §1, with “1243-8)” for “143-8)”, “concentrations” for “concentration”, “CR19.” for “CR4.”, “hemaglobinized” for “hemoglobinized”, “subcolonies) and CFU-C” for “subcolonies), CFU-GM”, “both).” for “both), CFU-Meg colonies (comprising 4 or more megakaryocytes) and CFU-GEMM colonies (a mixed population comprising of all elements).”\nas §1, with “1243-8)” for “143-8)”, “variations (British Journal of Haematology, 1992, 80, p 40-48).” for “variations.”, “test compound.” for “CR4.”, “CO2,” for “CO2”, “subcolonies) and CFU-C” for “subcolonies), CFU-GM”, “both).” for “both), CFU-Meg colonies (comprising 4 or more megakaryocytes) and CFU-GEMM colonies (a mixed population comprising of all elements).”"}, "Ly-MN lymphoma cells": {"test_system": "Ly-MN lymphoma cells", "test": "Colony assay of Ly-MN cells in culture", "format": "cell-based", "conditions": "colonies at 5 days, FIG. 5", "procedure": "Ly-MN cells were plated in 1 ml volumes, in the absence of exogenous growth factors, into 35 mm petri dishes (Nunc, Gibco) containing IMDM (OCI, Toronto) plus 20% human cord blood plasma in 0.9% (vol/vol) methylcellulose (Fluka, Switzerland) and the indicated concentrations of CR4. Cultures were set at 37° C., 5% CO2 in a humidified atmosphere. Colonies consisting of more than 20 cells were counted at 5 days or earlier using an inverted microscope."}, "[1]": {"test_system": "Z119 acute lymphoblastic leukemia cells", "test": "In vitro purging of Z119 acute lymphoblastic leukemia", "format": "cell-based, human", "conditions": "FIG. 15", "procedure": "For the purging assay, the cells were resuspended in complete medium with or without CR4 as indicated and incubated at 37° C., 5% CO2 for 0-5 hours. Cells were then washed thoroughly with medium to remove the CR4, resuspended and plated in 1 ml volumes, in the absence of exogenous growth factors, into 35 mm petri dishes (Nunc, Gibco) containing alpha MEM (Gibco) plus 20% FCS (Cansera Rexdale, ON.) in 0.9% (vol/vol) methylcellulose (Fluka, Switzerland). Cultures were set at 37° C., 5% CO2 in a humidified atmosphere. Colonies consisting of more than 20 cells were counted at 9 days or earlier using an inverted microscope."}, "[2]": {"test_system": "cells of the myeloid lineage", "conditions": "in vitro, ex vivo and in vivo; cited from earlier work"}}}
{"smiles": "N#C/C(=C\\C=C\\c1ccc(O)c(O)c1)C(=O)NCc1ccccc1", "note": "[CR4, (E,E)-2-(Benzylaminocarbonyl)-3-(3,4-dihydroxystyryl)acrylonitrile]", "values": [{"measurement": "BFU-E colony formation", "setting": "normal bone marrow cells; 10 μM, 14 days, FIG. 1", "value": "some inhibition"}, {"measurement": "CFU-GM colony numbers", "setting": "normal bone marrow cells; 10 μM, 14 days, FIG. 1", "value": "significantly stimulated"}, {"measurement": "effect upon normal cells at equivalent concentrations", "setting": "normal bone marrow cells; concentrations equivalent to those inhibiting the cancer cells of the same example", "value": "no effect"}, {"measurement": "toxicity upon normal bone marrow", "setting": "normal bone marrow cells; doses up to 5 μM, colonies at 14 days, FIG. 1", "value": "negligible toxicity"}, {"measurement": "normal cell growth and differentiation", "setting": "normal bone marrow cells; low nanomolar doses, long term exposure", "value": "unaffected"}, {"measurement": "concentrations until which minimal toxicity was seen in normal cells", "setting": "normal bone marrow cells; normal cells incubated in the presence of compound", "value": "10 to 20", "unit": "µM"}, {"measurement": "concentration by which inhibition was effected", "setting": "Ly-MN lymphoma cells", "value": 2.5, "unit": "µM"}, {"measurement": "inhibition of Ly-MN cell proliferation and survival", "setting": "Ly-MN lymphoma cells; nanomolar doses", "value": "significantly inhibited"}, {"measurement": "killing of Z119 cells after purging", "setting": "[1]; 25 μM, 2.5 hours exposure", "value": 85, "unit": "%"}, {"measurement": "subsequent Z119 cell growth after purging", "setting": "[1]; 25 μM, five hour exposure", "value": "complete ablation"}, {"measurement": "inhibition of Z119 cells after purging", "setting": "[1]; 50 μM, 2.5 hours exposure", "value": "complete inhibition"}, {"measurement": "promotion of myelopoiesis", "setting": "[2]", "value": "capable of promoting myelopoiesis"}]}
